Experiment [1] deals with PI3Kβ (Homo sapiens, UniProt P42338). Nature of the experiment: PI3K biochemical assay, PI3Kβ. How it is done:
PI3Kα activity is measured as the percent of ATP consumed following the kinase reaction using luciferase-luciferin-coupled chemiluminescence. Reactions were conducted in 384-well white, medium binding microtiter plates (Greiner). Kinase reactions were initiated by combining test compounds, ATP, substrate (PIP2), and kinase in a 20 μL volume in a buffer solution. The standard PI3Kalpha assay buffer is composed 50 mM Tris, pH 7.5, 1 mM EGTA, 10 mM MgCl2, 1 mM DTT and 0.03% CHAPS. The standard assay concentrations for enzyme, ATP, and substrate are 1.5 nM, 1 μM, and 10 μM, respectively. The reaction mixture was incubated at ambient temperature for approximately 2 h. Following the kinase reaction, a 10 μL aliquot of luciferase-luciferin mix (Promega Kinase-Glo) was added and the chemiluminescence signal measured using a Victor2 plate reader (Perkin Elmer). […] Substituting PI3Kα with PI3Kβ, PI3Kγ, or PI3Kδ, the inhibitory activity of the compounds for the other isoforms of I3K were measured.

In experiment [2] the test system is PI3Kα-mutated models. Nature of the experiment: Growth factor induced AKT phosphorylation compared across PI3Kα-mutated models. The experiment is classed as cell-based. The note with it: cell lines of Table 6. How it is done:
Cells were incubated at 37° C., 5% CO2 for 48 h (except MDA-MB-453 cells which were cultured in the absence of CO2). Compounds were serially diluted in DMSO and subsequently diluted in serum-free DMEM. Test compounds were added to cells in serum-free DMEM at a final concentration of 0.3% DMSO and incubated for 3 h. Cells were lysed with 130 μL of ice-cold RIPA lysis buffer (50 mM Tris-HCl, pH 7.5; 0.5% sodium deoxycholic acid; 1% Triton X-100; 0.1% SDS; 150 mM NaCl) with protease and phosphatase inhibitors (1 mM EDTA, 1 mM NaF, 20 mM β-glycerophosphate, 1 mM Na-orthovanadate, Complete-Mini EDTA-free, Roche, 11836170001, and Phosphatase Inhibitor Cocktail I, Sigma, P2850), directly in 96-well plates. Cells were lysed on ice for 60-120 min at 4° C. The supernatants were added directly to capture ELISA plates previously pre-coated with rabbit anti-AKT capture antibody. ELISA assays for pAKT(T308) and total AKT were performed with the pAKT(T308) ELISA kit (Cell Signaling Technology, 7144) and AKT1 ELISA kit (Cell Signaling Technology, 7142). For the pAKT(T308) ELISA, 85 μL of cell lysate was added to each well. For the total AKT1 ELISA, 15 μL of cell lysate and 85 μL of Starting Block buffer (Pierce, 37543) were added to each well.
Cells were incubated at 37° C., 5% CO2 for 48 h (except MDA-MB-453 cells which were cultured in the absence of CO2). […]

Experiment [3] concerns the target PI3Kδ (Homo sapiens, UniProt O00329). Nature of the experiment: PI3K biochemical assay, PI3Kδ. The conditions noted are these: PIP2 as substrate. How it is done: PI3Kα activity is measured as the percent of ATP consumed following the kinase reaction using luciferase-luciferin-coupled chemiluminescence. Reactions were conducted in 384-well white, medium binding microtiter plates (Greiner). Kinase reactions were initiated by combining test compounds, ATP, substrate (PIP2), and kinase in a 20 μL volume in a buffer solution. The standard PI3Kalpha assay buffer is composed 50 mM Tris, pH 7.5, 1 mM EGTA, 10 mM MgCl2, 1 mM DTT and 0.03% CHAPS. The standard assay concentrations for enzyme, ATP, and substrate are 1.5 nM, 1 μM, and 10 μM, respectively. The reaction mixture was incubated at ambient temperature for approximately 2 h. Following the kinase reaction, a 10 μL aliquot of luciferase-luciferin mix (Promega Kinase-Glo) was added and the chemiluminescence signal measured using a Victor2 plate reader (Perkin Elmer). Total ATP consumption was limited to 40-60% and IC50 values of control compounds correlate well with literature references. Substituting PI3Kα with PI3Kβ, PI3Kγ, or PI3Kδ, the inhibitory activity of the compounds for the other isoforms of I3K were measured.

Experiment [4] deals with SK-BR-3 (PI3Kα wild-type). Nature of the experiment: pAKT (T308) ELISA assay, SK-BR-3. The experiment is classed as cell-based. The note with it: Homo sapiens, PI3Kαwt, hereg, read-out: Cellular pAKT (T308) IC50 SK-BR-3. How it is done:
In another embodiment, the pAKT ELISA Assay was performed by seeding cells onto 96-well plates (Corning, 3904) in their respective growth media at the densities listed in Table 3. Cells were incubated at 37° C., 5% CO2 for 48 h (except MDA-MB-453 cells which were cultured in the absence of CO2). Compounds were serially diluted in DMSO and subsequently diluted in serum-free DMEM. Test compounds were added to cells in serum-free DMEM at a final concentration of 0.3% DMSO and incubated for 3 h. Cells were lysed with 130 μL of ice-cold RIPA lysis buffer (50 mM Tris-HCl, pH 7.5; 0.5% sodium deoxycholic acid; 1% Triton X-100; 0.1% SDS; 150 mM NaCl) with protease and phosphatase inhibitors (1 mM EDTA, 1 mM NaF, 20 mM β-glycerophosphate, 1 mM Na-orthovanadate, Complete-Mini EDTA-free, Roche, 11836170001, and Phosphatase Inhibitor Cocktail I, Sigma, P2850), directly in 96-well plates. Cells were lysed on ice for 60-120 min at 4° C. The supernatants were added directly to capture ELISA plates previously pre-coated with rabbit anti-AKT capture antibody. […] The wells were measured for luminescence using a Wallac plate reader at wavelength of 560 nm. After normalization of pAKT signal to total AKT1 signal, IC50 values were determined relative to the DMSO-treated control.
In general terms: ELISA stands for enzyme-linked immunosorbent assay.

Sequence of PI3Kδ (O00329 whole entry): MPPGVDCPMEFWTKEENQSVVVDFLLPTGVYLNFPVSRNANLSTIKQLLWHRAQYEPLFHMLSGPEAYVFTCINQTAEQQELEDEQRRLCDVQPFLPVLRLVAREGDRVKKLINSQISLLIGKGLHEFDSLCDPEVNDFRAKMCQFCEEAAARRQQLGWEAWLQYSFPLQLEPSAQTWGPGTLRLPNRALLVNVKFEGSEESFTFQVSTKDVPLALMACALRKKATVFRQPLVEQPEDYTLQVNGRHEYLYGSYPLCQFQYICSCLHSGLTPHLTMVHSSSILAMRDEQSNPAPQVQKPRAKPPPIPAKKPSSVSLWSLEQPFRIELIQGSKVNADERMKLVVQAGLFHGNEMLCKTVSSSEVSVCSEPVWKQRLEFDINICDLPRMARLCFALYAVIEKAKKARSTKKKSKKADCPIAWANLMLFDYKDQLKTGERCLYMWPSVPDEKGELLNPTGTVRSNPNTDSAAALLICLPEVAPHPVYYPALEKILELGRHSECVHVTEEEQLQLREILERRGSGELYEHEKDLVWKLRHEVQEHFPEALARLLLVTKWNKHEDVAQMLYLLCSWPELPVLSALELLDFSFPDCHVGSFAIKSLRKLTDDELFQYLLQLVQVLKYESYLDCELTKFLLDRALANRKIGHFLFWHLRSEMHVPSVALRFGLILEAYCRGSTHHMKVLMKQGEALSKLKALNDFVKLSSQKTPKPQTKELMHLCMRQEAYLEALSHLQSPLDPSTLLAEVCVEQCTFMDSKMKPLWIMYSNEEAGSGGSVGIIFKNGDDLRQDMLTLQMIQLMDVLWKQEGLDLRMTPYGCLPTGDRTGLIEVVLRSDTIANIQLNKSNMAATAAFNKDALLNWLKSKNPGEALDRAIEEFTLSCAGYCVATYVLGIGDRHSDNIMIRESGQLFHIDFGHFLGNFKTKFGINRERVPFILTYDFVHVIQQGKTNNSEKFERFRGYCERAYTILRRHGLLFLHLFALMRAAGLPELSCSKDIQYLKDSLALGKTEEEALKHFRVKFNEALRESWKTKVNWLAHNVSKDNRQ
Sequence of PI3Kδ (P27986 whole entry partner): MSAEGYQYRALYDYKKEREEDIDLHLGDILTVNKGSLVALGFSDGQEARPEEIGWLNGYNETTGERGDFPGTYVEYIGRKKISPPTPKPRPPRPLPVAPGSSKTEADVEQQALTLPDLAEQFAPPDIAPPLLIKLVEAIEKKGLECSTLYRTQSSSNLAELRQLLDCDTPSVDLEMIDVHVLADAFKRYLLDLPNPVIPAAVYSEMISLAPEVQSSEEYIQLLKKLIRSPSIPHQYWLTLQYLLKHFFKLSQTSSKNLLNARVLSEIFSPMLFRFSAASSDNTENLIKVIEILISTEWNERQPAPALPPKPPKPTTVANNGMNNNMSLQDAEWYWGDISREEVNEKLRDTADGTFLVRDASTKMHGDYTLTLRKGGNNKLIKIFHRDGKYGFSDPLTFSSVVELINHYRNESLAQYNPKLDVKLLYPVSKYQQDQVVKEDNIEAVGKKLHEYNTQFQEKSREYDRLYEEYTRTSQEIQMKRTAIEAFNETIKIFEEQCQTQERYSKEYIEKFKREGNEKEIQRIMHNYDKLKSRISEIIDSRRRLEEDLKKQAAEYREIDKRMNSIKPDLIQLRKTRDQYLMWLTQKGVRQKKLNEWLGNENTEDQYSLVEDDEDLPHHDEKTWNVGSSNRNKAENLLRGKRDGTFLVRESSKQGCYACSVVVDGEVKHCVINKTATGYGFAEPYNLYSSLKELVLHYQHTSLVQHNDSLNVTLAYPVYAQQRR
Sequence of PI3Kβ (P42338 whole entry): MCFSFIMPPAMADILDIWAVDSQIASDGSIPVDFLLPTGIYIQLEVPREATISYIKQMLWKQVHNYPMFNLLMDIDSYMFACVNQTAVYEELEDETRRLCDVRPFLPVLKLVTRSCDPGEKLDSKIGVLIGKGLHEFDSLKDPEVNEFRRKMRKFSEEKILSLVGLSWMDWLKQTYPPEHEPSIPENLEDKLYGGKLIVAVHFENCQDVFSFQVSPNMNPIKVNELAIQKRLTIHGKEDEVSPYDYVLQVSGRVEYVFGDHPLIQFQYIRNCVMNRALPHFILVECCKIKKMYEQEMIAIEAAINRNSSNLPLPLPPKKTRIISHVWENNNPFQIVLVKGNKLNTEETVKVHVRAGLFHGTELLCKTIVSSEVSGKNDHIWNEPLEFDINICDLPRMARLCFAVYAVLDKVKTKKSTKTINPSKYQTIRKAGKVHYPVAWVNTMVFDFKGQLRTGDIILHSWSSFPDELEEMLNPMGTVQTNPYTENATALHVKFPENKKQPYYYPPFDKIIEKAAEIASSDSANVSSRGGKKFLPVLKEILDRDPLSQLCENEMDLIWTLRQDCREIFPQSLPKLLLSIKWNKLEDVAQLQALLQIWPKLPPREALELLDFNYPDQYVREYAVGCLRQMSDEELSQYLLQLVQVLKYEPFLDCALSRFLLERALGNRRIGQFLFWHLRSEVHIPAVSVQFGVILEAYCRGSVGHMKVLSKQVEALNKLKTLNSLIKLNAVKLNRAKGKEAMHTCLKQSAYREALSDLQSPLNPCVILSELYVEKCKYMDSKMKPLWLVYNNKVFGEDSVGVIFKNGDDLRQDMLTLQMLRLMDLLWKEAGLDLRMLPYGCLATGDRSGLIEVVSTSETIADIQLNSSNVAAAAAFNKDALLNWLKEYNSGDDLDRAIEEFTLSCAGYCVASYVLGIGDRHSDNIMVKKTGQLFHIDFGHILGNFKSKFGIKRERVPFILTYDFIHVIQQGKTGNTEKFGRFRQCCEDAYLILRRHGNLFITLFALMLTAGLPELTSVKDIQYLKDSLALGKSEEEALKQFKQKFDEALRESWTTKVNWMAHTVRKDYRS
Sequence of PI3Kβ (P27986 whole entry partner): as the sequence (P27986 whole entry partner) above

As to `Cc1cc(C(C)Nc2ccccc2)c2nc(N3CCOCC3)cc(=O)n2c1` (stereo not shown) [TGX-221, 7-methyl-2-(4-morpholinyl)-9-[1-(phenylamino)ethyl]-4H-pyrido[1,2-a]pyrimidin-4-one], the “activity against PI3Kβ (in words)” value in experiment [1] is recorded as “active”. Besides, the “effect on PI3Kα mediated activity in these cell models” value in experiment [2] is recorded as “no effect”. Moreover, the IC50 (in general, the midpoint of a concentration-inhibition curve) was 142 nM in experiment [3] and more than 30000 nM in experiment [4].

The record behind these values is patent US20140066431A1, “Benzoxazepines as Inhibitors of PI3K/mTOR and Methods of Their Use and Manufacture” (Exelixis, Inc., priority 2010, published 2014).
